Measurements: US11680056B2, “MK2 inhibitors and uses thereof” (Xinthera, Inc., priority 2021, dated 2023)
Where two headings read alike, the source gives them in different places.

Assays:
p38a/PRAK = p38a/PRAK (Homo sapiens (Human), UniProt Q16539); test: p38a/PRAK biochemical assay: activation of PRAK by p38, FITC-HSP27 peptide phosphorylation (IMAP FP); conditions: 10-point 1:3 dilution, top dose 300 μM, 60 pM active p38a, 1 nM inactive PRAK, 10 μM ATP, 2 h incubation; for IC50: read-out: p38a/PRAK Enzyme pIC50 (converted)
Sequence of p38a/PRAK (Q16539 whole entry, the tested form may be a part): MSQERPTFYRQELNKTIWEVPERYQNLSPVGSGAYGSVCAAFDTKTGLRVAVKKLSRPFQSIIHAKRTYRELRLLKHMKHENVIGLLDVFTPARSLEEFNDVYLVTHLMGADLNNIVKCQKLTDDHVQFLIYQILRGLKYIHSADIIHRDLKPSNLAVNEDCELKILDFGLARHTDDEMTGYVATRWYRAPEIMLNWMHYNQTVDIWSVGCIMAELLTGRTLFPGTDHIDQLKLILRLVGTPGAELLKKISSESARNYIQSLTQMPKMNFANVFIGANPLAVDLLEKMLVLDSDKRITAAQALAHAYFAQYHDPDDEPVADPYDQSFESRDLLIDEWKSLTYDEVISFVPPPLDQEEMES
Protocol: (§1) Expression vectors of the recombinant MK2 and PRAK kinases were constructed by cloning of the codon optimized gene sequences of MK2 (Uniprot ID P49137, amino acid fragment F46-H400), or PRAK (Uniprot ID Q81W41, amino acid fragment M1-Q471) into pGEX-4T1 (GE) for over expression of these kinases with N-terminal GST-tag. Protein expression was carried out in E. coli BL21 by growing the hosts in TB medium, induction of protein expression with 0.5 mM IPTG at approximate 0.8 OD600, and incubation of the cultures at 18° C. for 14-20 hours afterwards. The harvested cells were resuspended in […] of Lysis buffer (50 mM Tris-HCl, pH 8.0, 500 mM NaCl, 1 mM DTT, 5% glycerol, and 1 mM PMSF) per gram of wet cell mass and homogenized at 4° C. in a microfluidizer (ATS, Suzhou, China) at 14,000 psi pressure, 3 passes. The cell lysates were clarified by centrifugation and the supernatants containing the GST-fusion proteins were purified by affinity chromatography using GSH-Sepharose (GE) gravity flow columns pre-equilibrated in Buffer A (50 mM Tris-HCl, pH 8.0, 500 mM NaCl, 1 mM DTT, and 5% glycerol). After thorough washing of the columns with Buffer A, the bound GST-proteins were eluted by Buffer B (50 mM Tris, pH 8.0, 500 mM NaCl, 1 mM DTT, 5% glycerol, 10 mM glutathione), followed by size-exclusion purification on Superdex 200 column equilibrated in Buffer A. The purified proteins were concentrated to approximately 1 mg/ml and stored at −80° C.
(§2) This study evaluates the inhibitory potency of invention compound on p38/MK2 pathway vs p38/PRAK pathway. More specially the compound concentration (IC50) was determined that inhibited half of the maximal activation of MK2 or PRAK by p38. MK2 activation study was set up without or with a serial of 10-point 1:3 dilution of invention compound at top dose of 1 or 1 μM, and PRAK activation study was set up without or with a serial of 10-point 1:3 dilution of invention compound at top dose of 300 μM. The MK2 and PRAK activity were determined by the phosphorylation level of HSP27 peptide conjugated with FITC.
(§3) After 2 h incubation of the reaction mixture with various concentration of invention compound (200 nL), 60 μL 1×IMAP solution Mixture (Molecular Devices, Cat R8127) was added to the reaction mixture and incubated for another half hour. The signal was then read by Synergy™ Neo2 Multi-Mode Microplate Reader with filter setting (Ex/Em=485 nm/FITC FP-P pol 528 nm & FITC FP-S pol 528 nm)
(§4) The signal was then normalized to vehicle control and fitted in Xfit to generate IC50. The selectivity of MK2 over PRAK was calculated by the formular Selectivity=IC50 of PRAK/IC50 of MK2.

p38a/MK2 = p38a/MK2 (Homo sapiens (Human), UniProt P49137+Q16539); test: p38a/MK2 biochemical assay: activation of MK2 by p38, FITC-HSP27 peptide phosphorylation (IMAP FP); conditions: 10-point 1:3 dilution, 60 pM active p38a, 1 nM inactive MK2, 10 μM ATP, 2 h incubation
Sequence of p38a/MK2 (P49137 46-400): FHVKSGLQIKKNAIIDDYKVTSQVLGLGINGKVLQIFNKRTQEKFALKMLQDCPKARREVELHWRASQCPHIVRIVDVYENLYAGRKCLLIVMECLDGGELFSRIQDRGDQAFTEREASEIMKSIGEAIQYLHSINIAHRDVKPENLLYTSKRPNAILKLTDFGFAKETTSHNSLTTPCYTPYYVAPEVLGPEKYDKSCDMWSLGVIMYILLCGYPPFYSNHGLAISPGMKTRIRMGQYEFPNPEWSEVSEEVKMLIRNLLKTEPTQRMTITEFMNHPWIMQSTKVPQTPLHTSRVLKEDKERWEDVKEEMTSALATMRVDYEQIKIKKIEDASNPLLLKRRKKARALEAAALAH
Sequence of p38a/MK2 (Q16539 whole entry): as the sequence (Q16539 whole entry, the tested form may be a part) above
Protocol: as §1
as §2, with “1:[…],” for “1:3 dilution of invention compound at top dose of 1 or 1 μM,”
as §3, §4

[1] = top dose 1 μM, read-out: p38a/MK2 (1 μM) Enzyme pIC50 (converted)
[2] = top dose 10 μM, read-out: p38a/MK2 (10 μM) Enzyme pIC50 (converted)

IC50 (p38a/PRAK) [µM]	IC50 (p38a/MK2; [1]) [nM]	IC50 (p38a/MK2; [2]) [nM]	p38a/PRAK Enzyme pIC50 (p38a/PRAK)	SMILES	p38a/MK2 (10 μM) Enzyme pIC50 (p38a/MK2; top dose 10 μM)
> 316	> 1000	–	–	Cc1cnc(-c2ccnc(C(C)(C)O)c2F)cc1-n1c(C)cc(OCc2ncc(F)cc2F)c(Cl)c1=O (atropisomer, axis not shown) [Example 56B, 3-chloro-4-[(3,5-difluoropyridin-2-yl)methoxy]-1-[3′-fluoro-2′-(2-hydroxypropan-2-yl)-5-methyl-[2,4′-bipyridin]-4-yl]-6-methylpyridin-2-one]	–
10	63.1	–	–	COCC(C)(O)c1nccc(-c2cc(-n3c(C)cc(OCc4ncc(F)cc4F)c(Cl)c3=O)c(C)cn2)n1 (racemic) [Example 55, 3-chloro-4-[(3,5-difluoropyridin-2-yl)methoxy]-2′-[2-(2-hydroxy-1-methoxypropan-2-yl)pyrimidin-4-yl]-5′,6-dimethyl-[1,4′-bipyridin]-2-one]	–
3.98	10	–	–	Cc1cnc(-c2ccnc(C3(O)CC3)n2)cc1-n1c(C)cc(OCc2ncc(F)cc2F)c(Cl)c1=O (single isomer, unassigned) [Example 3A, rel-3-chloro-4-[(3,5-difluoropyridin-2-yl)methoxy]-2′-[2-(1-hydroxycyclopropyl)pyrimidin-4-yl]-5′,6-dimethyl-[1,4′-bipyridin]-2-one]	–
> 316	–	> 10000	–	Cc1cnc(-c2ccnc(C3(O)CC3)n2)cc1-n1c(C)cc(OCc2ncc(F)cc2F)c(Cl)c1=O (single isomer, unassigned) [Example 3B, rel-3-chloro-4-[(3,5-difluoropyridin-2-yl)methoxy]-2′-[2-(1-hydroxycyclopropyl)pyrimidin-4-yl]-5′,6-dimethyl-[1,4′-bipyridin]-2-one]	–
10	5.01	–	–	Cc1cnc(-c2ccnc([C@](C)(O)C3CC3)n2)cc1-n1c(C)cc(OCc2ncc(F)cc2F)c(Cl)c1=O (single isomer, unassigned) [Example 6B, rel-3-chloro-2′-[2-(1-cyclopropyl-1-hydroxyethyl)pyrimidin-4-yl]-4-[(3,5-difluoropyridin-2-yl)methoxy]-5′,6-dimethyl-[1,4′-bipyridin]-2-one]	–
> 316	–	3160	–	Cc1cnc(-c2ccnc([C@](C)(O)C3CC3)n2)cc1-n1c(C)cc(OCc2ncc(F)cc2F)c(Cl)c1=O (single isomer, unassigned) [Example 6C, rel-3-chloro-2′-[2-(1-cyclopropyl-1-hydroxyethyl)pyrimidin-4-yl]-4-[(3,5-difluoropyridin-2-yl)methoxy]-5′,6-dimethyl-[1,4′-bipyridin]-2-one]	–
3.16	3.98	–	–	Cc1cnc(-n2ccc(C(C)(C)O)n2)cc1-n1c(C)cc(OCc2ncc(F)cc2F)c(Cl)c1=O (single isomer, unassigned) [Example 9A, rel-3-chloro-4-((3,5-difluoropyridin-2-yl)methoxy)-2′-(3-(2-hydroxypropan-2-yl)-1H-pyrazol-1-yl)-5′,6-dimethyl-2H-[1,4′-bipyridin]-2-one]	–
25.1	–	158	–	Cc1cnc(-c2ccc3c(n2)[C@H](O)CC3)cc1-n1c(C)cc(OCc2ncc(F)cc2F)c(Cl)c1=O (single isomer, unassigned) [Example 18A]	–
> 316	–	> 10000	–	Cc1cnc(-c2ccc3c(n2)[C@@H](O)CC3)cc1-n1c(C)cc(OCc2ncc(F)cc2F)c(Cl)c1=O (single isomer, unassigned) [Example 18B]	–
–	–	–	<3.5	Cc1cnc(-c2ccc3c(n2)[C@@H](O)CC3)cc1-n1c(C)cc(OCc2ncc(F)cc2F)c(Cl)c1=O (single isomer, unassigned) [Example 18C]	<5.0
3.16	–	79.4	–	Cc1cnc(-c2ccc3c(n2)[C@H](O)CC3)cc1-n1c(C)cc(OCc2ncc(F)cc2F)c(Cl)c1=O (single isomer, unassigned) [Example 18D]	–
> 316	–	> 10000	–	Cc1cnc(-c2ccnc(C3(CO)CC3)n2)cc1-n1c(C)cc(OCc2ncc(F)cc2F)c(Cl)c1=O (single isomer, unassigned) [Example 21A, rel-3-chloro-4-((3,5-difluoropyridin-2-yl)methoxy)-2′-(2-(1-(hydroxymethyl)cyclopropyl)pyrimidin-4-yl)-5′,6-dimethyl-2H-[1,4′-bipyridin]-2-one]	–

SMILES	IC50 (p38a/PRAK) [µM]	IC50 (p38a/MK2; [1]) [nM]	IC50 (p38a/MK2; [2]) [nM]	p38a/PRAK Enzyme pIC50 (p38a/PRAK)	p38a/MK2 (10 μM) Enzyme pIC50 (p38a/MK2; top dose 10 μM)
Cc1cnc(-c2ccnc([C@@](C)(O)C3CC3)n2)cc1-n1c(C)cc(OCc2ncc(F)cc2F)c(Cl)c1=O (racemic) [Example 6, 3-chloro-2′-[2-(1-cyclopropyl-1-hydroxyethyl)pyrimidin-4-yl]-4-[(3,5-difluoropyridin-2-yl)methoxy]-5′,6-dimethyl-[1,4′-bipyridin]-2-one]	12.6	–	–	–	7.5
Cc1cnc(-c2ccnc(C(C)(C)CO)n2)cc1-n1c(C)cc(OCc2ncc(F)cc2F)c(Cl)c1=O (single isomer, unassigned) [Example 4A, rel-3-chloro-4-[(3,5-difluoropyridin-2-yl)methoxy]-2′-[2-(1-hydroxy-2-methylpropan-2-yl)pyrimidin-4-yl]-5′,6-dimethyl-[1,4′-bipyridin]-2-one]	3.98	1.58	–	–	–
Cc1cnc(-c2ccnc(C(C)(C)CO)n2)cc1-n1c(C)cc(OCc2ncc(F)cc2F)c(Cl)c1=O (single isomer, unassigned) [Example 4B, rel-3-chloro-4-[(3,5-difluoropyridin-2-yl)methoxy]-2′-[2-(1-hydroxy-2-methylpropan-2-yl)pyrimidin-4-yl]-5′,6-dimethyl-[1,4′-bipyridin]-2-one]	> 316	–	794	–	–
Cc1cnc(-c2ccnc(C(C)(C)C(F)F)n2)cc1-n1c(C)cc(OCc2ncc(F)cc2F)c(Cl)c1=O (single isomer, unassigned) [Example 5A, rel-3-chloro-2′-[2-(1,1-difluoro-2-methylpropan-2-yl)pyrimidin-4-yl]-4-[(3,5-difluoropyridin-2-yl)methoxy]-5′,6-dimethyl-[1,4′-bipyridin]-2-one]	2.51	–	6.31	–	–
Cc1cnc(-c2ccnc(C(C)(C)C(F)F)n2)cc1-n1c(C)cc(OCc2ncc(F)cc2F)c(Cl)c1=O (single isomer, unassigned) [Example 5B, rel-3-chloro-2′-[2-(1,1-difluoro-2-methylpropan-2-yl)pyrimidin-4-yl]-4-[(3,5-difluoropyridin-2-yl)methoxy]-5′,6-dimethyl-[1,4′-bipyridin]-2-one]	> 316	–	2000	–	–
Cc1cnc(-c2ccnc([C@@](C)(O)C3CC3)n2)cc1-n1c(C)cc(OCc2ncc(F)cc2F)c(Cl)c1=O (single isomer, unassigned) [Example 6A, rel-3-chloro-2′-[2-(1-cyclopropyl-1-hydroxyethyl)pyrimidin-4-yl]-4-[(3,5-difluoropyridin-2-yl)methoxy]-5′,6-dimethyl-[1,4′-bipyridin]-2-one]	10	–	25.1	–	–
Cc1cnc(-c2ccnc([C@@](C)(O)C3CC3)n2)cc1-n1c(C)cc(OCc2ncc(F)cc2F)c(Cl)c1=O (single isomer, unassigned) [Example 6D, rel-3-chloro-2′-[2-(1-cyclopropyl-1-hydroxyethyl)pyrimidin-4-yl]-4-[(3,5-difluoropyridin-2-yl)methoxy]-5′,6-dimethyl-[1,4′-bipyridin]-2-one]	> 316	–	2510	–	–
